Test results published in patent US12122833B2, “Combination therapies of HDAC inhibitors and PD-1 inhibitors” (HUYABIO International, LLC, priority 2016, dated 2024).

Tested on: MC38 murine colon carcinoma cells
Assay: Example 2: tumor growth delay, MC38 tumors (5×10^5 cells) in C57BL/6 mice
Assay type: in vivo, mouse
Conditions: HBI-8000 50 mg/kg p.o. qd×21, anti-PD-1 5 mg/kg i.p. biwk×3
Description: Animals that exited the study for tumor volume endpoint were documented as euthanized for tumor progression (TP), with the date of euthanasia. The time to endpoint (TTE) for analysis was calculated for each mouse by the following equation:
[formula] where TTE is expressed in days, endpoint volume is expressed in mm^3, b is the intercept, and m is the slope of the line obtained by linear regression of a log-transformed tumor growth data set. The data set consisted of the first observation that exceeded the endpoint volume used in analysis and the three consecutive observations that immediately preceded the attainment of this endpoint volume. The calculated TTE is usually less than the TP date, the day on which the animal was euthanized for tumor burden. […] In instances in which the log-transformed calculated TTE preceded the day prior to reaching endpoint or exceeded the day of reaching tumor volume endpoint, a linear interpolation was performed to approximate the TTE. […]
Treatment Outcome: Treatment outcome was evaluated from tumor growth delay (TGD), which is defined as the increase in the median time to endpoint (TTE) in a treatment group compared to the control group: TGD=T−C expressed in days, or as a percentage of the median TTE of the control group: […]
Treatment Efficacy: Treatment efficacy may be determined from the tumor volumes of animals remaining in the study on the last day. […]

Nc1cc(F)ccc1NC(=O)c1ccc(CNC(=O)/C=C/c2cccnc2)cc1 [HBI-8000, N-(2-amino-4-fluorophenyl)-4-[[[(2E)-1-oxo-3-(3-pyridinyl)-2-propen-1-yl]amino]methyl]benz amide]
Median TTE (endpoint 1000 mm^3 or Day 50, n=10): 19.4 days | % TGD (vs vehicle): 19%
